Measured values as given in patent publication US20090311217A1, “3-SUBSTITUTED-1H-INDOLE COMPOUNDS, THEIR USE AS MTOR KINASE AND PI3 KINASE INHIBITORS, AND THEIR SYNTHESES” (priority 2008, published 2009).

Tests used:
Format in all cases: biochemical
[1] = target: PI3K-alpha (Homo sapiens, UniProt P42336); experiment: PI3K-alpha fluorescence polarization assay; conditions: read-out: PI3Kα Avg. IC50
[2] = target: PI3K-gamma (Homo sapiens, UniProt P48736); experiment: PI3K-gamma fluorescence polarization assay; conditions: PI3Kγ Avg. IC50
Sequence of PI3K-gamma (P48736 whole entry, species assumed, the tested form may be a part): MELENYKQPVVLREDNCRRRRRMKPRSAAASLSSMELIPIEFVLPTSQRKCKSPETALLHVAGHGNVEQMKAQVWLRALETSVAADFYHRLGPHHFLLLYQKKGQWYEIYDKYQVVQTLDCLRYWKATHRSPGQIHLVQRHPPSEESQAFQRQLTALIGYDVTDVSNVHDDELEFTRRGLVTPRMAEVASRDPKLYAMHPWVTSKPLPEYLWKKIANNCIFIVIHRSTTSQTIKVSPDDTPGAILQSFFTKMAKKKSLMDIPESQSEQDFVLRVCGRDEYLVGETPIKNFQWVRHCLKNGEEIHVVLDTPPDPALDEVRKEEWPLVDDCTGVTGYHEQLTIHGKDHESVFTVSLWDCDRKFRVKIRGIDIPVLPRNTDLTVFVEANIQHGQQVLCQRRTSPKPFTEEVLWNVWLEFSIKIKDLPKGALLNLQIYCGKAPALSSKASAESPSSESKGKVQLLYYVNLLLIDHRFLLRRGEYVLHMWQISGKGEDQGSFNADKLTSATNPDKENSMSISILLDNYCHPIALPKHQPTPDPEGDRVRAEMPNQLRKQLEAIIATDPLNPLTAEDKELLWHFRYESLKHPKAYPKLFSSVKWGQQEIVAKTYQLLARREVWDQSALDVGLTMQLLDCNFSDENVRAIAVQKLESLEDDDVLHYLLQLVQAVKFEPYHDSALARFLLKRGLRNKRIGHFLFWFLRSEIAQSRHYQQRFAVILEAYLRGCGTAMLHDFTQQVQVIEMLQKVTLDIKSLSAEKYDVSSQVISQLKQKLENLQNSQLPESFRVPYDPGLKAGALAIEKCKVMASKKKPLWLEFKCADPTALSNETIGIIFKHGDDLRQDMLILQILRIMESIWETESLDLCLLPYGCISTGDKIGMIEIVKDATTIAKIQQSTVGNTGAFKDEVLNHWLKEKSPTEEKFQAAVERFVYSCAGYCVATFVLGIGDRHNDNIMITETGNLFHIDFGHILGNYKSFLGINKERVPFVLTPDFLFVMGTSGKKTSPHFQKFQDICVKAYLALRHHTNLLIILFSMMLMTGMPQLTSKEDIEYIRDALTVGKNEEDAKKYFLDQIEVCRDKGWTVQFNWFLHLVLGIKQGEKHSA
Procedure, shortened: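 Reactions used 5 ng enzyme with 2.5 μM diC8-PI(4,5)P2 and 25 μM ATP in 5 mM HEPES pH 7, 2.5 mM MgCl2, run 1 h at 25° C. After an EDTA quench (10 mM), 100 nM GST-GRP1 PH domain and 5 nM BODIPY-TMR-IP4 were added and fluorescence polarization was read.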

[3] = target: T1, human TOR (Homo sapiens, UniProt P42345); experiment: mTOR enzyme assay (DELFIA, His6-S6K substrate); conditions: read-out: mTOR Kinase Avg. IC50
T1 construct: FLAG

Sequence of PI3K-alpha (P42336 whole entry, species assumed): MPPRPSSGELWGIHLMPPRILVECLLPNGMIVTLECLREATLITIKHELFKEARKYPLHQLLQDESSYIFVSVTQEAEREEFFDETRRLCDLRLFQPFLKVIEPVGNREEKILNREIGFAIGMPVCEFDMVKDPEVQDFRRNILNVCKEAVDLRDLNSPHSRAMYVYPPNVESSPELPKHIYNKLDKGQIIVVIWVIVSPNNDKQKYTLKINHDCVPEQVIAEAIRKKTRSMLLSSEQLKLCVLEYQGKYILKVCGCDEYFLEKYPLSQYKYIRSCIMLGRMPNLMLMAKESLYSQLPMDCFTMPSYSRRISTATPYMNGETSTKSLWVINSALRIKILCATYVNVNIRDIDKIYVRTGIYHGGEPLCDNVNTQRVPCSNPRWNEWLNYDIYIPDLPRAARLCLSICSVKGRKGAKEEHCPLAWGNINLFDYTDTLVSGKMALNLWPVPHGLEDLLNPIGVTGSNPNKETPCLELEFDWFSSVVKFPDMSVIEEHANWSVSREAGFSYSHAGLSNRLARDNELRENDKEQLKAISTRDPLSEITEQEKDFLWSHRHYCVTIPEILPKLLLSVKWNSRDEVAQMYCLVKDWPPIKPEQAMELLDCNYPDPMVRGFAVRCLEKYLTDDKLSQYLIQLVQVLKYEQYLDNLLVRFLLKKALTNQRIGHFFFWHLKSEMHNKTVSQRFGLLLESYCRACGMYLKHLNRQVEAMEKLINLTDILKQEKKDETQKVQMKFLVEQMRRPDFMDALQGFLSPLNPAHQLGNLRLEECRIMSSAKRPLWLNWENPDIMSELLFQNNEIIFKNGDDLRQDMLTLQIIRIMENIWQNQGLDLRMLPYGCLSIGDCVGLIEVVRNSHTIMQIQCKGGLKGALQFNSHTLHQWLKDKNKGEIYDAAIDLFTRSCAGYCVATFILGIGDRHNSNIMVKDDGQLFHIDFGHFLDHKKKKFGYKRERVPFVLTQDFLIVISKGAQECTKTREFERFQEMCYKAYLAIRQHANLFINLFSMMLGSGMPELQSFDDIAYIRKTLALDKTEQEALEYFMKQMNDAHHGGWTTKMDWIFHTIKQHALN
Sequence of PI3K-alpha (P27986 whole entry partner, species assumed): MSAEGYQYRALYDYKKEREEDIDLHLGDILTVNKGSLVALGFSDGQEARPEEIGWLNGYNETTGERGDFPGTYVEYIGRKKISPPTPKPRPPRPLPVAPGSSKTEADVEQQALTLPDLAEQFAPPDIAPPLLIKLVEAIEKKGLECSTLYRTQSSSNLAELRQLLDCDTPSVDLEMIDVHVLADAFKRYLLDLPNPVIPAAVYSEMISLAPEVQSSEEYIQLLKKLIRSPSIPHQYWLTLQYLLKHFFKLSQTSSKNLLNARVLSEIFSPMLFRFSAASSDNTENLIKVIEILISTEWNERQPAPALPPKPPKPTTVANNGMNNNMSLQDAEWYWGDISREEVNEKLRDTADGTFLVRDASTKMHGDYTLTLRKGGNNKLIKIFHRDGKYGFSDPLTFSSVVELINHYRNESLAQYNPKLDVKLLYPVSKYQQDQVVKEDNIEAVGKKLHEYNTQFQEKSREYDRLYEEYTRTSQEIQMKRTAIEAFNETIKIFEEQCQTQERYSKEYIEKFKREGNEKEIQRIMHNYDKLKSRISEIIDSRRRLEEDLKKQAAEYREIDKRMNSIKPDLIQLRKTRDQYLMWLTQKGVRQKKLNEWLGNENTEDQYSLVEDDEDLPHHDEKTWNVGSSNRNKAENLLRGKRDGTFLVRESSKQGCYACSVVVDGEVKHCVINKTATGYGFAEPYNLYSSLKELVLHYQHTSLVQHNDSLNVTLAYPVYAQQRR

For `CCn1c(C)c(/C=C2\Oc3ccc(NC(=O)Nc4ccc(OCCCNC)cc4)cc3C2=O)c2cc(OC)ccc21` [Compound 683, 1-{(2Z)-2-[(1-ethyl-5-methoxy-2-methyl-1H-indol-3-yl)methylidene]-3-oxo-2,3-dihydro-1-benzofuran-5-yl}-3-{4-[3-(methylamino)propoxy]phenyl}urea], the IC50 [1] was 1.65 nM, the IC50 [2] was 11 nM and the IC50 [3] was 92 nM.

Work on `COc1ccc2c(c1)c(/C=C1\Oc3ccc(NC(=O)Nc4ccc(NCCN(C)C)cc4)cc3C1=O)c(C)n2CCN1CCN(C)CC1` [Compound 684, 1-(4-{[2-(dimethylamino)ethyl]amino}phenyl)-3-[(2Z)-2-({5-methoxy-2-methyl-1-[2-(4-methylpiperazin-1-yl)ethyl]-1H-indol-3-yl}methylidene)-3-oxo-2,3-dihydro-1-benzofuran-5-yl]urea] yielded an IC50 [1] of 7 nM, an IC50 [2] of 1720 nM and an IC50 [3] of 19 nM.

For `COc1ccc2c(c1)c(/C=C1\Oc3ccc(NC(=O)Nc4ccc(NC(=O)CCN(C)C)cc4)cc3C1=O)c(C)n2CCN1CCN(C)CC1` [Compound 685, N-[4-({[(2Z)-2-({5-methoxy-2-methyl-1-[2-(4-methylpiperazin-1-yl)ethyl]-1H-indol-3-yl}methylidene)-3-oxo-2,3-dihydro-1-benzofuran-5-yl]carbamoyl}amino)phenyl]-N3,N3-dimethyl-b-alaninamide], the IC50 [1] was 0.8 nM, the IC50 [2] was 115 nM and the IC50 [3] was 16 nM.

`CCn1c(C)c(/C=C2\Oc3ccc(NC(=O)Nc4ccc(C(=O)N5CCOCC5)cc4)cc3C2=O)c2cc(OC)ccc21` [Compound 686, 1-{(2Z)-2-[(1-ethyl-5-methoxy-2-methyl-1H-indol-3-yl)methylidene]-3-oxo-2,3-dihydro-1-benzofuran-5-yl}-3-[4-(morpholin-4-ylcarbonyl)phenyl]urea] showed an IC50 [1] of 0.7 nM, an IC50 [2] of 5 nM and an IC50 [3] of 110 nM.

Work on `COc1ccc2c(c1)c(/C=C1\Oc3ccc(NC(=O)Nc4ccc(C(=O)N5CCOCC5)cc4)cc3C1=O)c(C)n2CCN1CCN(C)CC1` [Compound 687, 1-[(2Z)-2-({5-methoxy-2-methyl-1-[2-(4-methylpiperazin-1-yl)ethyl]-1H-indol-3-yl}methylidene)-3-oxo-2,3-dihydro-1-benzofuran-5-yl]-3-[4-(morpholin-4-ylcarbonyl)phenyl]urea] yielded an IC50 [1] of 1.1 nM, an IC50 [2] of 44 nM and an IC50 [3] of 87 nM.

With `COc1ccc2[nH]c(C3CCCCC3)c(/C=C3\Oc4ccc(NC(=O)Nc5ccc(C(=O)N(C)CCN(C)C)cc5)cc4C3=O)c2c1` [Compound 688, 4-[({(2Z)-2-[(2-cyclohexyl-5-methoxy-1H-indol-3-yl)methylidene]-3-oxo-2,3-dihydro-1-benzofuran-5-yl}carbamoyl)amino]-N-[2-(dimethylamino)ethyl]-N-methylbenzamide] the IC50 [1] was 0.3 nM, the IC50 [2] was 1.95 nM and the IC50 [3] was 6 nM.

With `COc1ccc2[nH]c(-c3c(C)nn(C)c3C)c(/C=C3\Oc4ccc(NC(=O)Nc5ccc(C(=O)N6CCN(C)CC6)cc5)cc4C3=O)c2c1` [Compound 689, 1-[(2Z)-2-{[5-methoxy-2-(1,3,5-trimethyl-1H-pyrazol-4-yl)-1H-indol-3-yl]methylidene}-3-oxo-2,3-dihydro-1-benzofuran-5-yl]-3-{4-[(4-methylpiperazin-1-yl)carbonyl]phenyl}urea] the IC50 [1] was 0.2 nM, the IC50 [2] was 2.5 nM and the IC50 [3] was 4 nM.

`COc1ccc2[nH]c(-c3c(C)nn(C)c3C)c(/C=C3\Oc4ccc(NC(=O)Nc5ccc(C(=O)N6CCOCC6)cc5)cc4C3=O)c2c1` [Compound 690, 1-[(2Z)-2-{[5-methoxy-2-(1,3,5-trimethyl-1H-pyrazol-4-yl)-1H-indol-3-yl]methylidene}-3-oxo-2,3-dihydro-1-benzofuran-5-yl]-3-[4-(morpholin-4-ylcarbonyl)phenyl]urea] was tested, and the IC50 [1] was 0.2 nM, the IC50 [2] was 2.75 nM and the IC50 [3] was 4 nM.

With `COc1ccc2[nH]c(-c3c(C)nn(C)c3C)c(/C=C3\Oc4ccc(NC(=O)Nc5ccc(NC(=O)CCN(C)C)cc5)cc4C3=O)c2c1` [Compound 691, N-[4-({[(2Z)-2-{[5-methoxy-2-(1,3,5-trimethyl-1H-pyrazol-4-yl)-1H-indol-3-yl]methylidene}-3-oxo-2,3-dihydro-1-benzofuran-5-yl]carbamoyl}amino)phenyl]-N3,N3-dimethyl-b-alaninamide] the IC50 [1] was 0.25 nM, the IC50 [2] was 2.1 nM and the IC50 [3] was 1 nM.

`CNC(=O)Nc1ccc2c(c1)C(=O)/C(=C/c1c(Br)[nH]c3ccc(OC)cc13)O2` [Compound 692, 1-{(2Z)-2-[(2-bromo-5-methoxy-1H-indol-3-yl)methylidene]-3-oxo-2,3-dihydro-1-benzofuran-5-yl}-3-methylurea] gave an IC50 [1] of 7 nM, an IC50 [2] of 105 nM and an IC50 [3] of 8 nM.

`CNC(=O)Nc1ccc2c(c1)C(=O)/C(=C/c1c(-c3c(C)nn(C)c3C)[nH]c3c(F)cc(OC)cc13)O2` [Compound 693, 1-[(2Z)-2-{[7-fluoro-5-methoxy-2-(1,3,5-trimethyl-1H-pyrazol-4-yl)-1H-indol-3-yl]methylidene}-3-oxo-2,3-dihydro-1-benzofuran-5-yl]-3-methylurea] was tested, and the IC50 [1] was 0.75 nM, the IC50 [2] was 5.07 nM and the IC50 [3] was < 1 nM.

Work on `CCn1c(C)c(/C=C2\Oc3ccc(NC(=O)Nc4ccc(N(C)C(=O)CCN(C)C)cc4)cc3C2=O)c2cc(OC)ccc21` [Compound 694, N-{4-[({(2Z)-2-[(1-ethyl-5-methoxy-2-methyl-1H-indol-3-yl)methylidene]-3-oxo-2,3-dihydro-1-benzofuran-5-yl}carbamoyl)amino]phenyl}-N,N3,N3-trimethyl-b-alaninamide] yielded an IC50 [1] of 4 nM, an IC50 [2] of 95 nM and an IC50 [3] of 155 nM.

For `COc1ccc2c(c1)c(/C=C1\Oc3ccc(NC(=O)Nc4ccc(N(C)C(=O)CCN(C)C)cc4)cc3C1=O)c(C)n2CCN1CCN(C)CC1` [Compound 695, N-[4-({[(2Z)-2-({5-methoxy-2-methyl-1-[2-(4-methylpiperazin-1-yl)ethyl]-1H-indol-3-yl}methylidene)-3-oxo-2,3-dihydro-1-benzofuran-5-yl]carbamoyl}amino)phenyl]-N,N3,N3-trimethyl-b-alaninamide], the IC50 [1] was 4 nM, the IC50 [2] was > 5500 nM and the IC50 [3] was 330 nM.

For `COc1ccc2[nH]c(-c3c(C)nn(C)c3C)c(/C=C3\Oc4ccc(NC(=O)Nc5ccc(N(C)C(=O)CCN(C)C)cc5)cc4C3=O)c2c1` [Compound 696, N-(4-{[(2-{[5-methoxy-2-(1,3,5-trimethyl-1H-pyrazol-4-yl)-1H-indol-3-yl]methylidene}-3-oxo-2,3-dihydro-1-benzofuran-5-yl)carbamoyl]amino}phenyl)-N,N3,N3-trimethyl-b-alaninamide], the IC50 [1] was 3 nM, the IC50 [2] was 48 nM and the IC50 [3] was 5 nM.

With `COc1ccc2[nH]c(-c3c(C)nn(C)c3C)c(/C=C3\Oc4ccc(NC(=O)Nc5ccc(C(=O)N6CCC(N(C)C)C6)cc5)cc4C3=O)c2c1` (stereo not drawn) [Compound 697, 1-(4-{[3-(dimethylamino)pyrrolidin-1-yl]carbonyl}phenyl)-3-[(2Z)-2-{[5-methoxy-2-(1,3,5-trimethyl-1H-pyrazol-4-yl)-1H-indol-3-yl]methylidene}-3-oxo-2,3-dihydro-1-benzofuran-5-yl]urea] the IC50 [1] was 0.25 nM, the IC50 [2] was 1.4 nM and the IC50 [3] was 1 nM.

With `COc1ccc2[nH]c(-c3c(C)nn(C)c3C)c(/C=C3\Oc4ccc(NC(=O)Nc5ccc(C(=O)N(C)C6CCN(C)C6)cc5)cc4C3=O)c2c1` (stereo not drawn) [Compound 698, 4-({[(2Z)-2-{[5-methoxy-2-(1,3,5-trimethyl-1H-pyrazol-4-yl)-1H-indol-3-yl]methylidene}-3-oxo-2,3-dihydro-1-benzofuran-5-yl]carbamoyl}amino)-N-methyl-N-(1-methylpyrrolidin-3-yl)benzamide] the IC50 [1] was 0.3 nM, the IC50 [2] was 3 nM and the IC50 [3] was 1 nM.

`CCN1CCN(C(=O)c2ccc(NC(=O)Nc3ccc4c(c3)C(=O)/C(=C/c3c(-c5c(C)nn(C)c5C)[nH]c5ccc(OC)cc35)O4)cc2)CC1` [Compound 699, 1-{4-[(4-ethylpiperazin-1-yl)carbonyl]phenyl}-3-[(2Z)-2-{[5-methoxy-2-(1,3,5-trimethyl-1H-pyrazol-4-yl)-1H-indol-3-yl]methylidene}-3-oxo-2,3-dihydro-1-benzofuran-5-yl]urea] was tested, and the IC50 [1] was 0.4 nM, the IC50 [2] was 3 nM and the IC50 [3] was 5 nM.

Work on `COc1ccc2[nH]c(-c3c(C)nn(C)c3C)c(/C=C3\Oc4ccc(NC(=O)Nc5ccc(C(=O)N6CCN(C(C)C)CC6)cc5)cc4C3=O)c2c1` [Compound 700, 1-[(2Z)-2-{[5-methoxy-2-(1,3,5-trimethyl-1H-pyrazol-4-yl)-1H-indol-3-yl]methylidene}-3-oxo-2,3-dihydro-1-benzofuran-5-yl]-3-(4-{[4-(1-methylethyl)piperazin-1-yl]carbonyl}phenyl)urea] yielded an IC50 [1] of 0.4 nM, an IC50 [2] of 3 nM and an IC50 [3] of 2 nM.

`COc1ccc2[nH]c(-c3c(C)nn(C)c3C)c(/C=C3\Oc4ccc(NC(=O)Nc5ccc(C(=O)N(C)CCN6CCCC6)cc5)cc4C3=O)c2c1` [Compound 701, 4-({[(2Z)-2-{[5-methoxy-2-(1,3,5-trimethyl-1H-pyrazol-4-yl)-1H-indol-3-yl]methylidene}-3-oxo-2,3-dihydro-1-benzofuran-5-yl]carbamoyl}amino)-N-methyl-N-(2-pyrrolidin-1-ylethyl)benzamide] showed an IC50 [1] of 0.3 nM, an IC50 [2] of 3 nM and an IC50 [3] of 1 nM.

In the case of `COc1ccc2[nH]c(-c3c(C)nn(C)c3C)c(/C=C3\Oc4ccc(NC(=O)Nc5ccc(C(=O)N6CCC(N(C)C)CC6)cc5)cc4C3=O)c2c1` [Compound 702, 1-(4-{[4-(dimethylamino)piperidin-1-yl]carbonyl}phenyl)-3-[(2Z)-2-{[5-methoxy-2-(1,3,5-trimethyl-1H-pyrazol-4-yl)-1H-indol-3-yl]methylidene}-3-oxo-2,3-dihydro-1-benzofuran-5-yl]urea], the IC50 [1] is reported as 0.3 nM, the IC50 [2] is reported as 3 nM and the IC50 [3] is reported as 1 nM.
